Patent US11465995B2, “Crystal and salt forms of tricyclic compound and preparation process thereof” (SHIJIAZHUANG SAGACITY NEW DRUG DEVELOPMENT COMPANY, LTD., priority 2018, dated 2022)

Assays:
[1] = tested on: TNBS-induced acute infectious bowel disease (IBD) model; assay: Pharmacodynamic test on TNBS-induced acute infectious bowel disease (IBD) model in female SD rats; assay type: in vivo; parameters: Ulcer score / Inflammation score / Total injury score: scale not given here; details: for Injury area (cm^2) / Ulcer area (cm^2) / Inflammation score / Total injury score / Ulcer score: mean ± sem; for Inflammation score / Total injury score / Ulcer score: colon pathological test
Experimental: Female SD rats were divided into 7 groups, that is, model group, prednisolone-10 mg/kg group, Ozanimod-0.3 mg/kg group, Ozanimod-1.0 mg/kg group, Compound 1-0.1 mg/kg group, Compound 1-0.3 mg/kg group, Compound 1-0.6 mg/kg group. All animals were deeply anesthetized with pentobarbital sodium, and TNBS-50% alcohol solution was inserted into the intestinal cavity from the anus for modeling. The animal's anus was squeezed, and the animal was allowed to stand upside down for 5 min. The animals were returned to the cage after assured to be leak free.
The test compounds were administered orally 1 h after modeling, once a day for 7 days. The model group was given an equal volume of drug vehicle. The animals were weighed daily before administration of the test compound and were monitored for daily fecal traits and given clinical observation scores. The day after the last administration, all animals were euthanized. The colons were collected (anal to nodular part), the length and weight of the colons were measured, and the gross anatomical scores of the lesion sizes was taken. The gross anatomical images of the colon lesions were recorded, and the tissues were fixed in 10% neutral formalin solution and were subjected to histopathological analysis.

[2] = tested on: blood lymphocytes; assay: Effects of single oral administration on blood lymphocytes in rats; assay type: in vivo, SD rats; details: 1.0 mg/kg single oral; for Percentage of lymphocytes in white blood cells in a unit volume of blood (%) / Rate of change of lymphocytes in blood after administration (%): mean ± SEM
Experimental: Normal SPF grade male SD rats were administered by single oral gavage. The experiment contained five groups: the vehicle control group, the reference compound Ozanimod group, Compound 1-0.3 mg/kg dose group, Compound 1-1.0 mg/kg dose group, Compound 1-3 mg/kg dose group. Blood was collected 0.5 h before administration and 4, 8, 24 h after administration, and anticoagulated with 10% K2-EDTA. The anticoagulated blood sample was placed in 4° C. environment, diluted 1:4 with normal saline, and quickly tested with a hematology analyzer to calculate the number of lymphocytes per liter of blood and the percentage in the total white blood cells. Graphpad prism 6.0 software was used to calculate the mean±standard error, and the two-way ANOVA test was used to test the significance of the difference. When p<0.05, there was a significant difference between two groups.

[3] = Pharmacokinetic evaluation in SD rats; assay type: in vivo; details: Sprague Dawley, rat, plasma, 3 mg/kg, male, intravenous injection and oral administration, Ozanimod at 3 mpk
Experimental: This Example is provided to test pharmacokinetics of compounds in SD rats.
Materials: Sprague Dawley rats (male, 200-300 g, 7-9 weeks, Shanghai SLAC)
Procedures: The rodent pharmacokinetic characteristics of the compound after intravenous injection and oral administration were tested according to standard protocol. In the test, the candidate compound was formulated as a clear solution, and the rats were given a single intravenous injection and oral administration. The intravenous and oral vehicles were a hydroxypropyl β cyclodextrin aqueous solution in a certain proportion or normal saline solution. The whole blood sample within 24 h was collected, centrifuged at 3000 g for 15 min, and the supernatant was separated to give the plasma sample. 4 volumes of acetonitrile solution containing internal standard was added to precipitate protein and after centrifugation the supernatant was collected and added with equal volume of water. After further centrifugation, the supernatant was used for injection. Quantitative analysis of blood drug concentration was done by LC-MS/MS analysis method and pharmacokinetic parameters were calculated, such as Cmax, Tmax, clearance, half-life, area under the curve of drug concentration-time, bioavailability, etc.

[4] = Stability test of Crystal Form A solid (accelerated, 40° C./75% humidity, open); assay type: physicochemical
Experimental: Crystal Form A was placed in an opening container with constant temperature and humidity for accelerated test, under the conditions of 40° C./75% humidity (open). Samples were taken at 1st, 2nd, 3rd month for testing, and the test results were compared with initial results of day 0.

[5] = 0.3 mg/kg oral once a day for 7 days
[6] = 1.0 mg/kg oral once a day for 7 days
[7] = 10 mg/kg oral once a day for 7 days
[8] = 40° C./75% humidity (Open), 1 month
[9] = 40° C./75% humidity (Open), 2 months
[10] = 40° C./75% humidity (Open), 3 months

## CC(C)Oc1ccc(-c2nc(-c3cccc4c3CC[C@@H]4NCCO)no2)cc1C#N [Ozanimod, reference compound]
[1]; [5]
  Injury area (cm^2): 4.76 ± 0.33 cm^2
  Ulcer area (cm^2): 1.12 ± 0.31 cm^2
[1]; [6]
  Injury area (cm^2): 4.60 ± 0.71 cm^2
  Ulcer area (cm^2): 1.36 ± 0.48 cm^2
[1]; 0.3 mg/kg
  Inflammation score: 3.71 ± 0.42
  Total injury score: 6.29 ± 0.75
  Ulcer score: 2.57 ± 0.37
[1]; 1.0 mg/kg
  Inflammation score: 3.43 ± 0.30
  Total injury score: 6.00 ± 0.58
  Ulcer score: 2.57 ± 0.30
[2]; 4 h
  Percentage of lymphocytes in white blood cells in a unit volume of blood (%): 44.53 ± 3.75 %
  Rate of change of lymphocytes in blood after administration (%): −71.79 ± 2.51 %
[2]; 8 h
  maximum decreasing rate of the number of blood lymphocytes: 84.39%
  Percentage of lymphocytes in white blood cells in a unit volume of blood (%): 35.69 ± 2.47^****$ %
  Rate of change of lymphocytes in blood after administration (%): −84.39 ± 1.16 %
[2]; 24 h
  blood lymphocyte decreasing rate: 47.26%
  Percentage of lymphocytes in white blood cells in a unit volume of blood (%): 58.63 ± 2.17%
  Rate of change of lymphocytes in blood after administration (%): −47.26 ± 4.34 %
[2]; −0.5 h (before administration)
  Percentage of lymphocytes in white blood cells in a unit volume of blood (%): 58.67 ± 1.61%
[3]
  clearance: 46.3 mL/min/kg
[3]; read-out: Bioavailability F (%)
  bioavailability: 41.6%
[3]; read-out: Concentration Integration AUC
  AUC: 1.12 µM·h
[3]; read-out: Half-life T1/2 (converted)
  half-life: 5.24 h

## C[C@]12C=CC(=O)C=C1CC[C@@H]1[C@@H]2[C@@H](O)C[C@@]2(C)[C@H]1CC[C@]2(O)C(=O)CO [Prednisolone]
[1]; [7]
  Injury area (cm^2): 4.45 ± 0.82 cm^2
  Ulcer area (cm^2): 1.58 ± 0.53 cm^2
[1]; 10 mg/kg, compared to the model group
  colon ulcers (dissection at the end of the experiment): not reduced
[1]; 10 mg/kg
  Inflammation score: 3.00 ± 0.33
  Total injury score: 5.00 ± 0.63
  Ulcer score: 2.00 ± 0.38

## CC(C)Oc1ccc(-c2nc(-c3cccc4c3C[C@@H]3CC(=O)N(CCO)[C@H]43)no2)cc1C#N [Crystal Form A]
[4]; [8]
  Appearance: White powder
  Content (%): 101.4%
  Total Impurity (%): 0.31%
[4]; [9]
  Appearance: White powder
  Content (%): 98.8%
  Total Impurity (%): 0.34%
[4]; [10]
  Appearance: White powder
  Content (%): 101.8%
  Total Impurity (%): 0.32%
[4]; 40° C./75% humidity (open), up to 3 months vs day 0
  amount of total impurity (change over the test): did not increase
[4]; Initial, 0 month
  Appearance: White powder
  Content (%): 101.6%
  Total Impurity (%): 0.33%
